Data set [1] concerns rats. Kind of data set: Rotarod and open field tests (motor coordination and locomotor activity). The class given is in vivo, rat. The following applies: suprapharmacological concentrations. The text has this:
(§1) These findings indicate that CR4056 could be a safe drug for treating neurodegenerative diseases, and, in particular, Alzheimer disease.

The test system of data set [2] is rats. Briefly: Irwin test (neurobehavioral changes). It counts as in vivo, rat. The settings on record: suprapharmacological concentrations.
From the text: as §1

A short description of data set [3]: Brain penetration: plasma and brain levels by LC/MS/MS after oral administration. The settings on record: 30 mg/kg PO, fasted; for concentration at 1 h / Kp at 1 h: male, Sprague Dawley, rat, po, 30 mg/kg; for Kp at 1 h: brain/plasma. It counts as in vivo, rat. The method, then:
CR 4056 was determined in rat plasma and in rat brain and plasma using a LC/MS/MS method. Male Sprague Dawley rats, Harlan, were treated orally with a CR 4056 suspension (Methocel 0.5%) at the dose of 30 mg/kg. Oral administration was performed by gastric gavage to 3 animals per group (5 ml/kg). The compound was detected in plasma and in brain 1 hour after the treatment.
Each rat brain was weighted and cut in half. Each cerebral hemisphere was weighted and homogenized with two different methodologies. One was liquidization by Ultra turrax tube drive (IKA), adding an aliquot of buffer solution (10 mM ammonium formate pH 3.5) three times the weight of the hemisphere. Then 30 μl of the extract solution were added to 0.25 ml of methanol in a 1.5 ml eppendorf tube, vortex-mixed and centrifugated for 5 min at 13500 rpm at 4° C. the supernatant was transferred to a 96-deep well plates 2 mL round (Axygen) and injected into the LC/MS/MS system. The second one was cryogenic grinding with Mikro Dismembrator (Sartorius). Each cerebral hemisphere was weighted, put in a 20 mL teflon vessel with a steel sphere (7.85 g/ml dia 10 mm) and frozen by immersion in liquid nitrogen for 5 minutes. The deep frozen brain was ground with Mikro Dismembrator at 2500 rpm for 30 sec, the freezing/grinding cycle was repeated twice. A portion of powder was accurately weighted (ca. 10 mg) in a 1.5 ml eppendorf tube, 0.25 ml of methanol were then added. After vortex-mixing and centrifugation for 5 min at 13500 rpm at 4° C., the supernatant was placed in a 96-deep well plates 2 mL round (Axygen) and injected into the LC/MS/MS system. Both methods used for homogenization gave similar results showing that the extraction efficiency was similar for both methods.
Individual plasma and brain levels and brain plasma ratio after oral administration (30 mg/kg) of CR 4056 suspension to male Sprague Dawley rats in fasted conditions (rats were scarified 60 minutes after the PO administration) are shown in the following table.

In data set [4] the test system is Iba1-positive microglial cells. Kind of data set: Spinal microglia activation (Iba1 immunofluorescence) in CFA inflammatory model. The following applies: rats, 6 mg/kg os single administration 72 hours post-CFA, evaluated after 90 minutes. The class given is in vivo, rat. On the procedure:
FIG. 2 reports the results of spinal microglia activation at 72 hours following CFA injection. The quantification of microglia activation in ipsilateral L5 SC dorsal horn was determined as the number of Iba1-positive microglia, displaying a clearly swollen cell body with reduced processes, within the analyzed selected frame of the superficial laminae. Data represent the mean of 5 animals/group. Ordinary one way ANOVA followed by Dunnet's multiple comparison (**p<0.05).
Microglial cells activation was evaluated by immunofluorescence staining, measuring the expression of ionized calcium-binding adapter molecule 1 (Iba-1) in ipsilateral L5 spinal cord in complete Freund's adjuvant (CFA) model. […]
CR4056 (6 mg/kg, os) was administered 72 hours post-CFA and after 90 minutes animals were deeply anesthetized with an overdose of urethane (1.5 g·kg−1, i.p.) and then transcardially perfused with 250 mL 0.9% saline containing 1% heparin (5000 UI·mL−1), followed by 500 mL 10% formalin (i.e., 4% paraformaldehyde, Bio-Optica Spa, Milan, Italy). […] For each section, a representative image of both the ipsilateral and the contralateral dorsal horn (laminae I-III) of the L5 spinal cord was captured at 20× magnification, using consistent exposure times across all sections, and then analysed. […] For each animal (n=5 per group) 6 non-consecutive sections were analysed and results were averaged.

The next data set relates to COX-2. Kind of data set: COX-2 gene expression in IL-1β-stimulated U373 MG astrocytoma cells (RT-PCR). It counts as cell-based, human. The settings on record: IL-1β 2 ng/ml. The method, then:
A model of astrocytes, the human glioblastoma astrocytoma cell line U373 MG (Uppsala), was used for these experiments. Adherent cells were grown in DMEM medium supplemented with 10% FBS at 37° C. with CO2. 72 hours after plating, cells were treated for 1 h with 2-phenyl-6-(1H-imidazol-1-yl)quinazoline (CR4056) (10 μM) prepared according to EP2066653 and then stimulated with the pro-inflammatory cytokine IL-1β (2 ng/mL) for further 6 and 24 h.
At the end of incubation period, total RNA was obtained and retro-transcribed using the High-Capacity cDNA Reverse Transcription Kit (Thermo Fisher Scientific). The levels of expression of COX-2, IL-1β, IL-6 and TNFα were evaluated by RT-PCR analysis, performed using the Applied Biosystems 7500 Fast Real-Time PCR System using specific TaqMan assays and, as an endogenous control, the 18S Pre-Developed TaqMan® Assay (Thermo Fisher Scientific). The data analysis, with normalisation on 18S amplified values, was according to Thermo Fisher Scientific specific instructions for gene expression relative quantification. All individual data were the result of at least three different measurements for each sample.
Percentage of gene expression inhibition observed in U373 cells stimulated with IL-1β 2 ng/ml and exposed to 10 μM CR4056 for the indicated time.

Where [5] appears, read: individual male Sprague Dawley rats, 1 h.

Values joined by “and” are separate entries in the source; they are usually repeats but may differ in a detail not shown here. Equal values may be shown once. “Also recorded” adds a separate entry of the source. Read-outs that look alike come from different tables or passages of the source.

As for `c1ccc(-c2ncc3cc(-n4ccnc4)ccc3n2)cc1` [CR4056, 2-phenyl-6-(1H-imidazol-1-yl)quinazoline], the “Impairment of motor coordination and locomotor activity (rotarod and open field tests)” value in the data set on rats [1] is “nor impairment of motor coordination and locomotor activity”. In the data set with rats [2], the “Neurobehavioral changes (Irwin test)” value is on record as “neither neurobehavioral changes”. Further, in data set [3] (setting [5]), the Brain/plasma ratio was 12.4 and 11.4. Moreover, the “Mean Brain Concentration” value in data set [3] (setting [5]) was 35492 ng/g and 27745 ng/g. Moreover, in data set [3] (setting [5]), the “Plasmatic Concentration” value is 2860 ng/mL and 2430 ng/mL. The concentration at 1 h in data set [3] (brain, individual male Sprague Dawley rats, read-out: Mean Brain Concentration) worked out at 33600 ng/g; in data set [3] (brain, male Sprague Dawley rats, read-out: Mean Brain Concentration, mean of 3 rats) it was 32300 ng/g; in data set [3] (plasma, individual male Sprague Dawley rats, read-out: Plasmatic Concentration), 2860 ng/mL; in data set [3] (plasma, male Sprague Dawley rats, read-out: Plasmatic Concentration, mean of 3 rats), 2720 ng/mL. The Kp at 1 h in data set [3] (individual male Sprague Dawley rats, read-out: Brain/plasma ratio) was 11.7; in data set [3] (male Sprague Dawley rats, read-out: Brain/plasma ratio, mean of 3 rats) it was 11.8. Also, the “Microglia activation in ipsilateral L5 spinal cord dorsal horn (Iba1-positive activated microglia)” value in data set [4] was “completely restored the basal conditions of microglia; also recorded: significantly reduced microglia activation”. In addition, the “Percentage of gene expression inhibition, COX-2” value with COX-2 (10 μM CR4056, 6 h) was found to be 45%; in the data set on COX-2 (10 μM CR4056, 24 h) it was 48%.

Values taken from patent US20240091227A1, “Use Of 2-Phenyl-6-(1H-Imidazol-1-YL) Quinazoline For Treating Neurodegenerative Diseases, Preferably Alzheimer's Disease” (ROTTAPHARM BIOTECH S.R.L., priority 2019, published 2024).
